The text below walks through data of PubChem BioAssay (NCI).

Where “and” joins values, the source holds several entries; their conditions need not be identical. Equal values may be shown once.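 Cells were grown in 96-well plates and exposed to each compound for 48 hours at five concentrations; endpoints were interpolated linearly between bracketing concentrations, or set to the highest concentration if not reached. GI50 = concentration required for 50% inhibition of growth. The concentration for full growth arrest is given as TGI.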

Some test systems named below: SN12C renal; DU-145 prostate; OVCAR-4 ovarian; MCF7 breast; A549 NSCLC; SR leukemia; COLO 205 colon; SK-MEL-2 melanoma; SF-539 CNS; MDA-MB-435.
What all share (assay): NCI anticancer screen, dose series, 48 h

On to `O=S(=O)(CCNCc1ccc(-c2ccc3ncnc(Nc4ccc(OCc5cccc(F)c5)c(Cl)c4)c3c2)o1)c1ccccc1`, for which the GI50 in the experiment on SN12C renal, with DU-145 prostate, with OVCAR-4 ovarian, with MCF7 breast, with A549 NSCLC and with SR leukemia was greater than 25 µM in each case. The GI50 with COLO 205 colon, in the experiment with SK-MEL-2 melanoma, with SF-539 CNS and with MDA-MB-435 was greater than 25 µM each time. Besides, the TGI in the experiment on SN12C renal, with DU-145 prostate, with OVCAR-4 ovarian, in the experiment with MCF7 breast, with A549 NSCLC and in the experiment with SR leukemia was greater than 25 µM throughout. For the same compound, the TGI in the experiment on COLO 205 colon, in the experiment on SK-MEL-2 melanoma, with SF-539 CNS and in the experiment with MDA-MB-435 was greater than 25 µM in each case.

Regarding `Cc1cc(C)c2nc3nc(C)cc(C)c3c(N)c2c1`, the GI50 in the experiment on SN12C renal was 4.37 µM; in the experiment with DU-145 prostate it was 4.72 µM; with OVCAR-4 ovarian, 3.63 µM; in the experiment with MCF7 breast it was 3.54 µM; with A549 NSCLC it was 4.34 µM; in the experiment with SR leukemia, 2.47 µM. The GI50 with COLO 205 colon was 2.78 µM; with SK-MEL-2 melanoma, 6.89 µM; with SF-539 CNS, 4.15 µM; in the experiment with MDA-MB-435, 3.53 µM. The TGI with SN12C renal is 36.2 µM; in the experiment on DU-145 prostate, 17.9 µM; in the experiment with OVCAR-4 ovarian, 19.8 µM; in the experiment on MCF7 breast it was 16.7 µM; in the experiment on A549 NSCLC, greater than 100 µM; in the experiment with SR leukemia it was 13.3 µM. Moreover, the TGI with COLO 205 colon turned out to be 11.8 µM; with SK-MEL-2 melanoma it was 21.7 µM; in the experiment on SF-539 CNS, 14.6 µM; with MDA-MB-435, 16.6 µM.

For the compound `O=C(Cc1ccccc1)NC(c1ccc(Cl)cc1)c1c(O)ccc2ccccc12` (centres undefined), the GI50 in the experiment on SN12C renal was 2.99 µM; in the experiment with DU-145 prostate, 4.68 µM; in the experiment with OVCAR-4 ovarian, 2.73 µM; in the experiment on MCF7 breast, 2.66 µM; in the experiment on A549 NSCLC it was 3.68 µM; with SR leukemia it was 2.56 µM. The GI50 with COLO 205 colon was 1.98 µM; in the experiment with SK-MEL-2 melanoma, 2.9 µM; in the experiment on SF-539 CNS, 2.53 µM; in the experiment on MDA-MB-435, 2.91 µM. In addition, the TGI with SN12C renal worked out at 11.5 µM; in the experiment with DU-145 prostate it was 17 µM; in the experiment with OVCAR-4 ovarian it was 10.2 µM; in the experiment on MCF7 breast it was 9.37 µM; in the experiment with A549 NSCLC it was 13.3 µM; in the experiment on SR leukemia, 10.1 µM. The TGI with COLO 205 colon was 3.48 µM; in the experiment with SK-MEL-2 melanoma, 6.83 µM; in the experiment on SF-539 CNS, 7.51 µM; in the experiment on MDA-MB-435 it was 10.7 µM.

For the compound `OCC1OC(n2cnc3c2NC=NC[C@H]3O)CC1O` (some centres undefined), the GI50 in the experiment on SN12C renal is greater than 588 µM; in the experiment with OVCAR-4 ovarian, greater than 588 µM; with A549 NSCLC, 412 µM and > 588 µM; with COLO 205 colon it was greater than 588 µM; with SK-MEL-2 melanoma it was greater than 588 µM; in the experiment with SF-539 CNS, 405 µM and > 588 µM. Also, the TGI in the experiment on SN12C renal is 500 µM and > 588 µM; in the experiment on DU-145 prostate, 500 µM; with OVCAR-4 ovarian it was 500 µM and > 588 µM; with MCF7 breast, 500 µM; in the experiment on A549 NSCLC it was 461 µM and > 588 µM; in the experiment with SR leukemia, 443 µM. In addition, the TGI in the experiment on COLO 205 colon was 500 µM and > 588 µM; in the experiment with SK-MEL-2 melanoma it was 500 µM and > 588 µM; with SF-539 CNS, 461 µM and > 588 µM; with MDA-MB-435, greater than 500 µM.

`N=c1n(Cc2ccccc2)c(N)cc(=O)n1Cc1ccccc1`: the GI50 was 1.34 µM in the experiment on SN12C renal; 2.28 µM with DU-145 prostate; 2.41 µM in the experiment with OVCAR-4 ovarian; 2.73 µM in the experiment with MCF7 breast; 1.19 µM in the experiment with A549 NSCLC; 2.28 µM in the experiment on SR leukemia. In addition, the GI50 with COLO 205 colon was 3.97 µM; in the experiment on SK-MEL-2 melanoma, 2.79 µM; with SF-539 CNS it was 1.96 µM; in the experiment on MDA-MB-435, 3.54 µM. Besides, the TGI in the experiment with SN12C renal turned out to be 18.1 µM; in the experiment with DU-145 prostate, 6.47 µM; with OVCAR-4 ovarian, 10.5 µM; with MCF7 breast, 18.4 µM; with A549 NSCLC, 2.56 µM; with SR leukemia it was 7.53 µM. The TGI with COLO 205 colon came to 13.8 µM; in the experiment on SK-MEL-2 melanoma it was 7.18 µM; with SF-539 CNS it was 4.25 µM; in the experiment on MDA-MB-435 it was 13.8 µM.

Regarding `S=C(c1ccc2c(c1)OCO2)N1CCN(c2cccc(Cl)c2)CC1`, the GI50 with SN12C renal is 7.51 µM; in the experiment on DU-145 prostate, 2.16 µM; in the experiment with OVCAR-4 ovarian it was 7.45 µM; with MCF7 breast, 0.471 µM; with A549 NSCLC, 0.872 µM; in the experiment with SR leukemia, 0.382 µM. The GI50 in the experiment on COLO 205 colon is 0.706 µM; in the experiment with SK-MEL-2 melanoma it was greater than 100 µM; with SF-539 CNS, 1.1 µM; with MDA-MB-435, 0.182 µM. The TGI was greater than 100 µM in the experiment on SN12C renal; greater than 55.1 µM in the experiment with DU-145 prostate; greater than 100 µM in the experiment with OVCAR-4 ovarian; greater than 100 µM in the experiment with MCF7 breast; greater than 40.2 µM in the experiment with A549 NSCLC; greater than 100 µM in the experiment on SK-MEL-2 melanoma. Moreover, the TGI came out at 8.13 µM with SF-539 CNS and 0.607 µM with MDA-MB-435.

Take `CCCC(=O)Nc1ccc2c(c1)CN1C(=O)c3ccccc3C1=N2`: the TGI with SN12C renal, in the experiment on DU-145 prostate, in the experiment with OVCAR-4 ovarian, with MCF7 breast, in the experiment with A549 NSCLC and with SR leukemia was greater than 100 µM throughout. Moreover, the TGI in the experiment with COLO 205 colon, in the experiment on SK-MEL-2 melanoma, in the experiment on SF-539 CNS and with MDA-MB-435 was greater than 100 µM in each case.
